Experimental data taken from patent publication US11649255B2, “Indazoles as hematopoietic progenitor kinase 1 (HPK1) inhibitors and methods using same” (1st Biotherapeutics, Inc., priority 2020, dated 2023).

Molecular target: recombinant human HPK1 (Homo sapiens (Human), UniProt Q92918)
Experiment: HPK1 kinase assay (ADP-Glo)
Format: biochemical
Conditions: 25 μM ATP, MBP substrate
How it was run: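 Activity was read as ADP formed, detected by ADP-Glo luminescence after the reaction of 5 ng recombinant human HPK1 with MBP and ATP (stocks 0.5 μg/μl and 25 μM) for 40 min at 30 °C. Buffer was Tris pH 7.5 with MgCl2, BSA and DTT, with compound in 0.5% DMSO. IC50 came from inhibition curves.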

Chain of recombinant human HPK1 (Q92918 whole entry): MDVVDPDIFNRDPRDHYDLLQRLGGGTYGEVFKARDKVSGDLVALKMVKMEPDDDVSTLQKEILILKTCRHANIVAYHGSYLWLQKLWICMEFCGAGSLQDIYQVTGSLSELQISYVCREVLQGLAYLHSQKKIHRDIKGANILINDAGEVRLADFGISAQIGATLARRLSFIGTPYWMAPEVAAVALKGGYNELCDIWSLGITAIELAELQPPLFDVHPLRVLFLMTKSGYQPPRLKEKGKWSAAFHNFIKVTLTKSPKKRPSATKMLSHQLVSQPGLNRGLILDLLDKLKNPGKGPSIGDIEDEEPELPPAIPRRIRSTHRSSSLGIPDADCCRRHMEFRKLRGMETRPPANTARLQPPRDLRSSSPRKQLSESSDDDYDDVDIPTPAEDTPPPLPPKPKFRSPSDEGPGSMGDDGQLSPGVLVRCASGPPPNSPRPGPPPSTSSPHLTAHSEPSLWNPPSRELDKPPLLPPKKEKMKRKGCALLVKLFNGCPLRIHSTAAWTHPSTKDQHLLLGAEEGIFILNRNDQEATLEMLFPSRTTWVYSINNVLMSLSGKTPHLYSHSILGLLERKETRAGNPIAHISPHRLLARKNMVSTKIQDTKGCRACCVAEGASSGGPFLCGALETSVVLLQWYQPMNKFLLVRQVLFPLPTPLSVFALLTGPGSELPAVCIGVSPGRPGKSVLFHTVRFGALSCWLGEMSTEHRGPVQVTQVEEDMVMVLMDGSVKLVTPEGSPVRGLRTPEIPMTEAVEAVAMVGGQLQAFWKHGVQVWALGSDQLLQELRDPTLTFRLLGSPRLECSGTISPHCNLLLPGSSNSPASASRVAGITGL

| IC50 | SMILES |
| --- | --- |
| < 100 nM | CCSc1c(F)c(Cl)c(-c2ccn3nc(NC(=O)[C@@H]4C[C@@H]4F)cc3c2)c2cn[nH]c12 [Example 621, (1S,2S)-N-(5-(5-chloro-7-(ethylthio)-6-fluoro-1H-indazol-4-yl)pyrazolo[1,5-a]pyridin-2-yl)-2-fluorocyclopropane-1-carboxamide] |
| < 100 nM | CN(C)C(=O)c1ccn(-c2c(F)c(Cl)c(-c3ccc4nc(NC(=O)[C@@H]5C[C@@H]5F)cn4c3)c3cn[nH]c23)c1 [Example 400, 1-(5-chloro-6-fluoro-4-(2-((1S,2S)-2-fluorocyclopropane-1-carboxamido)imidazo[1,2-a]pyridin-6-yl)-1H-indazol-7-yl)-N,N-dimethyl-1H-pyrrole-3-carboxamide] |
| 101 to 500 nM | C=CC(=O)Nc1c(F)c(Cl)c(-c2ccc3nc(NC(=O)[C@@H]4C[C@@H]4F)sc3c2)c2cn[nH]c12 [Example 72, (1S,2S)-N-(6-(7-acrylamido-5-chloro-6-fluoro-1H-indazol-4-yl)benzo[d]thiazol-2-yl)-2-fluorocyclopropane-1-carboxamide] |
| < 100 nM | CC(=O)N(C)c1c(F)c(C)c(-c2ccc3nc(NC(=O)[C@@H]4C[C@@H]4F)sc3c2)c2cn[nH]c12 [Example 120, (1S,2S)-2-fluoro-N-(6-(6-fluoro-5-methyl-7-(N-methylacetamido)-1H-indazol-4-yl)benzo[d]thiazol-2-yl)cyclopropane-1-carboxamide] |
| < 100 nM | CN(C)c1c(F)c(Cl)c(-c2ccc3nc(NC(=O)NC4CC4)cn3c2)c2cn[nH]c12 [Example 387, 1-(6-(5-chloro-7-(dimethylamino)-6-fluoro-1H-indazol-4-yl)imidazo[1,2-a]pyridin-2-yl)-3-cyclopropylurea] |
| < 100 nM | CNc1ccc2[nH]ncc2c1-c1ccc2nc(NC(=O)C3CC3)cn2c1 [Example 229, N-(6-(5-(methylamino)-1H-indazol-4-yl)imidazo[1,2-a]pyridin-2-yl)cyclopropanecarboxamide] |
| < 100 nM | CN1CCN(c2c(F)c(Cl)c(-c3ccn4nc(NC(=O)[C@@H]5C[C@@H]5F)cc4c3)c3cn[nH]c23)C1=O [Example 623, (1S,2S)-N-(5-(5-chloro-6-fluoro-7-(3-methyl-2-oxoimidazolidin-1-yl)-1H-indazol-4-yl)pyrazolo[1,5-a]pyridin-2-yl)-2-fluorocyclopropane-1-carboxamide] |
| < 100 nM | CNc1c(F)c(Cl)c(-c2ccn3nc(NC(=O)[C@@H]4C[C@@H]4F)cc3c2)c2cn[nH]c12 [Example 494, (1S,2S)-N-(5-(5-chloro-6-fluoro-7-(methylamino)-1H-indazol-4-yl)pyrazolo[1,5-a]pyridin-2-yl)-2-fluorocyclopropane-1-carboxamide] |
| < 100 nM | C=Cc1c(F)cc2[nH]ncc2c1-c1ccn2nc(NC(=O)[C@@H]3C[C@@H]3F)cc2c1 [Example 447, (1S,2S)-2-fluoro-N-(5-(6-fluoro-5-vinyl-1H-indazol-4-yl)pyrazolo[1,5-a]pyridin-2-yl)cyclopropane-1-carboxamide] |
| < 100 nM | CCc1c(F)c(SCC(=O)O)c2[nH]ncc2c1-c1ccn2nc(NC(=O)[C@@H]3C[C@@H]3F)cc2c1 [Example 526, 2-((5-ethyl-6-fluoro-4-(2-((1S,2S)-2-fluorocyclopropane-1-carboxamido)pyrazolo[1,5-a]pyridin-5-yl)-1H-indazol-7-yl)thio)acetic acid] |
| < 100 nM | Cc1c(F)c(SCCO)c2[nH]ncc2c1-c1ccc2nc(NC(=O)[C@@H]3C[C@@H]3F)cn2c1 [Example 292, (1S,2S)-2-fluoro-N-(6-(6-fluoro-7-((2-hydroxyethyl)thio)-5-methyl-1H-indazol-4-yl)imidazo[1,2-a]pyridin-2-yl)cyclopropane-1-carboxamide] |
